For the data set the following is noted: 293 K; 101.33 kPa; Crystal; X-ray diffraction.

For two compounds, mass density results are on record in the NIST ThermoML archive (doi:10.1016/j.jct.2017.05.041).

What is called mass density is mass per unit of volume.

± gives the expanded uncertainty stated by the source.

Consider `NCC1(CC(=O)O)CCCCC1.O` [2-(1-(aminomethyl)cyclohexyl)acetic acid monohydrate], for which the mass density is on record as 1210 ± 12 kg/m3.

Turning to `NCC1(CC(=O)O)CCCCC1` [2-(1-(aminomethyl)cyclohexyl)acetic acid], the mass density came out at 1239 ± 10 kg/m3.
